Consider 15 compounds from PubChem BioAssay AID328 (DTP/NCI, 2004).

The subject of the assay is BDF1 mice, P388 leukemia ip, median survival T/C. Put plainly: NCI In Vivo Anticancer Drug Screen. Data for tumor model P388 Leukemia (intraperitoneal) in B6D2F1 (BDF1) mice. The settings on record: endpoint: median survival time, higher = longer survival. The method in brief: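 Vehicle-dosed animals serve as the reference; survival of compound-dosed, tumour-implanted mice is divided by it.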

Where [1] appears, read: dose: 6.25 mg/kg/injection, schedule: Q01DX009 (ip), vehicle: saline.
Setting [2] is: dose: 12.5 mg/kg/injection, schedule: Q01DX009 (ip), vehicle: saline.
The mark [3] stands for this setting: dose: 25.0 mg/kg/injection, schedule: Q01DX009 (ip), vehicle: saline.
[4] abbreviates: dose: 25.0 mg/kg/injection, schedule: Q04DX003 (ip), vehicle: saline.
Setting [5] is: dose: 50.0 mg/kg/injection, schedule: Q04DX003 (ip), vehicle: saline.
Where [6] appears, read: dose: 100.0 mg/kg/injection, schedule: Q04DX003 (ip), vehicle: saline.
[7] abbreviates: dose: 200.0 mg/kg/injection, schedule: Q04DX003 (ip), vehicle: saline.
Setting [8] is: dose: 50.0 mg/kg/injection, schedule: Q01DX005 (ip), vehicle: Klucel (hydroxypropylcellulose) (HPC).
[9] abbreviates: dose: 50.0 mg/kg/injection, schedule: Q01DX009 (ip), vehicle: Klucel (hydroxypropylcellulose) (HPC).
Setting [10] is: dose: 100.0 mg/kg/injection, schedule: Q04DX003 (ip), vehicle: Klucel (hydroxypropylcellulose) (HPC).
Where [11] appears, read: dose: 200.0 mg/kg/injection, schedule: Q04DX003 (ip), vehicle: Klucel (hydroxypropylcellulose) (HPC).
[12] abbreviates: dose: 400.0 mg/kg/injection, schedule: Q04DX003 (ip), vehicle: Klucel (hydroxypropylcellulose) (HPC).
Setting [13] is: dose: 100.0 mg/kg/injection, schedule: Q01DX009 (ip), vehicle: saline with Tween-80.
[14] abbreviates: dose: 100.0 mg/kg/injection, schedule: Q04DX003 (ip), vehicle: saline with Tween-80.
The mark [15] stands for this setting: dose: 200.0 mg/kg/injection, schedule: Q01DX009 (ip), vehicle: saline with Tween-80.
The mark [16] stands for this setting: dose: 200.0 mg/kg/injection, schedule: Q04DX003 (ip), vehicle: saline with Tween-80.
[17] abbreviates: dose: 100.0 mg/kg/injection, schedule: Q01DX001 (ip), vehicle: saline with Tween-80.

Several values for one entry are separate records, joined by “and”; a condition that tells them apart may be missing. Identical values can stand only once. Toxic doses and inconclusive results are not listed.

As to `CC1(C)N=C(N)N=C(N)N1c1cccc(CCCCc2cccc(S(=O)(=O)F)c2)c1`, the T/C is 118 % of control (dose: 1.5 mg/kg/injection, schedule: Q04DX003 (ip), vehicle: saline); 109 % of control (dose: 4.0 mg/kg/injection, schedule: Q04DX003 (ip), vehicle: saline with Tween-80); 113 % of control (dose: 6.0 mg/kg/injection, schedule: Q04DX003 (ip), vehicle: saline with Tween-80); 108 % of control under setting [1]; 118 % of control (dose: 9.0 mg/kg/injection, schedule: Q04DX003 (ip), vehicle: saline with Tween-80); 116 % of control under setting [2]. For the same compound, under setting [3], the T/C is 116 % of control.
With `CCOC(=O)c1nc2nc(Cl)c(Cl)nc2[nH]1`, the T/C was 90 % of control (dose: 4.0 mg/kg/injection, schedule: Q01DX009 (ip), vehicle: saline); 93 % of control under setting [4]; 89 % of control (dose: 32.0 mg/kg/injection, schedule: Q01DX009 (ip), vehicle: saline); 98 % of control under setting [5]; 102 % of control under setting [6]; 93 % of control under setting [7].
In the case of `COc1c2c(cc3oc4ccccc4c(=O)c13)CCCC2=O`, the T/C was 90 % of control under setting [8] and 88 % of control (dose: 200.0 mg/kg/injection, schedule: Q01DX005 (ip), vehicle: Klucel (hydroxypropylcellulose) (HPC)).
As to `C[C@]1(O)CC[C@H]2[C@@H]3CCC4=CC(=O)CC[C@]4(C)[C@@]3(F)C(=O)C[C@@]21C`, the T/C reads like this: (dose: 12.5 mg/kg/injection, schedule: Q01DX009 (ip), vehicle: Klucel (hydroxypropylcellulose) (HPC)) 104 % of control; (dose: 25.0 mg/kg/injection, schedule: Q01DX009 (ip), vehicle: Klucel (hydroxypropylcellulose) (HPC)) 109 % of control; under setting [9], 90 % of control; under setting [10], 100 % of control; under setting [11], 100 % of control; under setting [12], 104 % of control.
As for `CCCCCCCCCCCC(c1ccccc1)[N+](C)(C)C` (configuration not stated), the T/C is, setting by setting: (dose: 1.0 mg/kg/injection, schedule: Q01DX010 (ip), vehicle: saline) 100 % of control; (dose: 2.0 mg/kg/injection, schedule: Q01DX010 (ip), vehicle: saline) 104 % of control; (dose: 4.0 mg/kg/injection, schedule: Q01DX010 (ip), vehicle: saline) 116 % of control; (dose: 4.0 mg/kg/injection, schedule: Q04DX003 (ip), vehicle: saline) 113 % of control; (dose: 8.0 mg/kg/injection, schedule: Q04DX003 (ip), vehicle: saline) 118 % of control; (dose: 16.0 mg/kg/injection, schedule: Q04DX003 (ip), vehicle: saline) 100 % of control.
For the compound `CCOc1ccc(N2C(=O)CSC2=S)cc1`, the T/C runs as follows: (dose: 50.0 mg/kg/injection, schedule: Q01DX009 (ip), vehicle: saline with Tween-80) 104 % of control; (dose: 50.0 mg/kg/injection, schedule: Q04DX003 (ip), vehicle: saline with Tween-80) 110 % of control; under setting [13], 100 % of control; under setting [14], 100 % of control; under setting [15], 95 % of control; under setting [16], 100 % of control.
In the case of `CC1=CCC(CC(N)=O)C1(C)C` (configuration not stated), the T/C was 105 % of control under setting [17]; 103 % of control (dose: 200.0 mg/kg/injection, schedule: Q01DX001 (ip), vehicle: saline with Tween-80); 92 % of control (dose: 400.0 mg/kg/injection, schedule: Q01DX001 (ip), vehicle: saline with Tween-80).
As for `Nc1ccn(C2OC(CO)C(O)C2O)c(=O)n1` (configuration not stated), the T/C is, setting by setting: (dose: 5.0 mg/kg/injection, schedule: Q01DX010 (ip), vehicle: saline) 190 % of control; (dose: 13.0 mg/kg/injection, schedule: Q03HX024 (ip), vehicle: saline) 300 % of control; (dose: 16.0 mg/kg/injection, schedule: Q01DX005 (ip), vehicle: saline) 170 % of control; under setting [8], 150 % of control; (dose: 60.0 mg/kg/injection, schedule: Q01DX010 (ip), vehicle: water) 90 % of control and 110 % of control; (dose: 80.0 mg/kg/injection, schedule: Q01DX009 (ip), vehicle: water) 86 % of control. In addition, the T/C is 90 % of control (dose: 80.0 mg/kg/injection, schedule: Q01DX010 (ip), vehicle: water); 100 % of control (dose: 100.0 mg/kg/injection, schedule: Q01DX009 (ip), vehicle: saline); 86 % of control and 90 % of control (dose: 100.0 mg/kg/injection, schedule: Q01DX009 (ip), vehicle: water); 90 % of control (dose: 100.0 mg/kg/injection, schedule: Q01DX010 (ip), vehicle: water); 100 % of control (dose: 160.0 mg/kg/injection, schedule: Q01DX010 (ip), vehicle: saline); 100 % of control (dose: 200.0 mg/kg/injection, schedule: Q01DX001 (ip), vehicle: saline). Further, the T/C runs as follows: (dose: 200.0 mg/kg/injection, schedule: Q01DX009 (ip), vehicle: saline) 91 % of control and 110 % of control; (dose: 256.0 mg/kg/injection, schedule: Q01DX005 (ip), vehicle: saline) 96 % of control; (dose: 1500.0 mg/kg/injection, schedule: Q04DX003 (ip), vehicle: water) 200 % of control.
`c1ccc2c(c1)[nH]c1nc3ncncc3nc12`: the T/C is, setting by setting: under setting [6], 122 % of control; under setting [7], 100 % of control; (dose: 400.0 mg/kg/injection, schedule: Q04DX003 (ip), vehicle: saline) 100 % of control.
Take `CN(C)c1ccc(C=O)cc1Br`: the T/C under setting [9] was 95 % of control; the T/C (dose: 100.0 mg/kg/injection, schedule: Q01DX009 (ip), vehicle: Klucel (hydroxypropylcellulose) (HPC)) was 95 % of control; the T/C under setting [10] was 100 % of control; the T/C (dose: 200.0 mg/kg/injection, schedule: Q01DX009 (ip), vehicle: Klucel (hydroxypropylcellulose) (HPC)) was 100 % of control; the T/C under setting [11] is 100 % of control; the T/C under setting [12] was 100 % of control.
Take `c1nc(SC2=NCCN2)c2[nH]cnc2n1`: the T/C reads like this: (dose: 4.12 mg/kg/injection, schedule: Q01DX009 (ip), vehicle: saline) 118 % of control; under setting [1], 150 % of control; (dose: 9.37 mg/kg/injection, schedule: Q01DX009 (ip), vehicle: saline) 122 % of control; under setting [2], 119 % of control; (dose: 12.5 mg/kg/injection, schedule: Q04DX003 (ip), vehicle: saline) 115 % of control; (dose: 21.0 mg/kg/injection, schedule: Q01DX009 (ip), vehicle: saline) 100 % of control. Also, the T/C was 123 % of control under setting [3], 115 % of control under setting [4] and 123 % of control under setting [5].
Take `S=c1nc[nH]c2c1ncn2CN1CCCCC1`: the T/C was 122 % of control (dose: 66.0 mg/kg/injection, schedule: Q01DX009 (ip), vehicle: saline with Tween-80) and 154 % of control (dose: 150.0 mg/kg/injection, schedule: Q01DX009 (ip), vehicle: saline with Tween-80).
In the case of `O=[N+]([O-])c1ccc(N/N=C(\CCl)c2ccccc2)c([N+](=O)[O-])c1`, the T/C is, setting by setting: (dose: 25.0 mg/kg/injection, schedule: Q01DX001 (ip), vehicle: saline with Tween-80) 109 % of control; (dose: 50.0 mg/kg/injection, schedule: Q01DX001 (ip), vehicle: saline with Tween-80) 104 % of control; under setting [17], 104 % of control.
For `Cc1cc(N=NC(N)=S)c2ccccc2c1O`, the T/C under setting [13] is 103 % of control and the T/C under setting [15] is 100 % of control.
Take `O=c1n(CCCl)c(=O)n(CCCl)c(=O)n1CCCl`: the T/C was 110 % of control under setting [13]; 100 % of control under setting [14]; 110 % of control under setting [15]; 104 % of control under setting [16]; 100 % of control (dose: 400.0 mg/kg/injection, schedule: Q01DX009 (ip), vehicle: saline with Tween-80); 104 % of control (dose: 400.0 mg/kg/injection, schedule: Q04DX003 (ip), vehicle: saline with Tween-80).
